# Measured values from patent EP1049703B1, “N-[2-(5-BENZYLOXYCARBONYL-AMINO-6-OXO-2-(4-FLUOROPHENYL)-1,6-DIHYDRO-1-PYRIMIDINYL)ACETOXYL]-L-ASPARTIC ACID ALDEHYDE AS AN IN VIVO INHIBITOR OF INTERLEUKIN-1BETA CONVERTING ENZYME” (WARNER-LAMBERT COMPANY, priority 1998, dated 1999).
# pIC50, pKi: −log10 of the molar value.
# Key:
# [1] = system: IL-1β production in human peripheral blood mononuclear cells (PBMCs); assay: PBMC cellular assay: LPS-stimulated IL-1β production (ELISA); assay type: cell-based; conditions: PBMCs stimulated overnight with 10 ng/mL LPS, concentration which reduces IL-1β levels by 50%, read-out: 3. PBMC IC50
# Text: Further evidence that compound 1 is a potent inhibitor of ICE is provided by its ability to inhibit IL-1β production in human peripheral blood mononuclear cells (PBMCs) as described herein. PBMCs are isolated from heparinized blood by centrifugation over a ficoll cushion, then washed three times with phosphate-buffered saline. PBMCs are suspended in a medium containing RPMI 1640 with glutamine, penicillin, streptomycin, and 2% human AB serum, then plated at 10^6 cells per well in 96 well flat bottom plates. PBMCs are stimulated overnight with 10 ng/mL of lipopolysaccharide (LPS, E. Coli strain 0111:B4; Calbiochem) in the presence or absence of compound 1 or 2. Medium is harvested, and the level of mature IL-1β was determined using an ELISA kit from R & D Systems. Compound inhibition is assessed by determining the concentration of agent which reduces IL-1β levels by 50%. Cells were cultured for an additional 4 hours in the presence of 3-(4, 5-dimethylthiazol-2-yl)-2, 5-diphenyltetrazolium bromide (MTT) to determine viability. Compound toxicity can, therefore, be assessed by determining the concentration of agent which kills 50% of the cells (IC50).
# focal cerebral ischemia = assay: Ischemic brain damage model: permanent (MCAOp) and transient (MCAOt) focal cerebral ischemia; assay type: in vivo, CD-1 mice
# Protocol: Compound 1 is tested in both permanent (MCAOp) and transient (MCAOt) models of focal cerebral ischemia in the mouse. The middle cerebral artery is occluded by an intraluminal suture in CD-1 mice. In the transient model, the suture is withdrawn after 1 hour and in both studies, mice are sacrificed at 24 hours, and brain lesion size is determined from H and E stained sections. Drug or vehicle is administered IP at -5, 60, and 180 minutes from the time of vessel occlusion at doses of 25 and 50 mg/kg × 3 (MCAOp) or 50 mg/kg × 3 (MCAOt). In the more severe MCAOp, there is a small reduction in lesion size (13%, p <0.04, one-tailed t-test) at the high dose whereas, in the less severe MCAOt, the lesion size is 60% smaller in the drug treated mice (p <0.002).
# excitotoxic brain damage = assay: Excitotoxic brain damage in neonatal rats; assay type: in vivo, Seven-day-old rat pups; conditions: for % Loss (percent loss of hemisphere weight): 30 mg/kg intraperitoneal 0.25 hours after 15 nMoles of MDA into right caudate nucleus, five days later; for extent of exitotoxic brain damage in rat pups (result in words): summary statement
# Protocol: Compound 1 and compound 2 are tested in a model of excitotoxic brain damage in neonatal rats. Seven-day-old rat pups are anesthetized with ether, placed in a head holder and injected with 15 nMoles of MDA into the right caudate nucleus. The pups are treated by intraperitoneal injection with drug (30 mg/kg) or vehicle (0.2% methocel in water) 0.25 hours later and then returned to their home cage. Five days following this excitotoxic challenge, the pups are sacrificed, their brains removed and hemispheres weighed. The loss in weight of the injected hemisphere relative to the contralateral hemisphere is an estimate of the degree of brain necrosis. […] Importantly, such protection is not seen at the same dose of compound 2.
# ICE [2] = molecular target: T1, ICE (Homo sapiens, UniProt P29466); assay: ICE colorimetric dose-response (IC50) assay; assay type: biochemical; conditions: about 24 nM ICE, 60 minutes preincubation, 50 µM Ac-Tyr-Val-Ala-Asp-pNA; read-out: 2. ICE IC50
# T1 sequence (P29466 120-297 limits assumed): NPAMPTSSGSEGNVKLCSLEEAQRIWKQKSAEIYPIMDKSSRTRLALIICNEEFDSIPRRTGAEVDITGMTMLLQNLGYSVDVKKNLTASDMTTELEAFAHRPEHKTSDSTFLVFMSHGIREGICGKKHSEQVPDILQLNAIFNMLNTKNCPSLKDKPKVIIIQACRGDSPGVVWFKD
# T1 sequence (P29466 317-404 limits assumed): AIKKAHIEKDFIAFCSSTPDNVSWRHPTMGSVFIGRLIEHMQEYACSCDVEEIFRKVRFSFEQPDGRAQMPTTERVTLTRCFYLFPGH
# Protocol: Diluted inhibitor stocks are prepared by two-fold serial dilution from a primary stock whose concentration is selected (based on screening results or on prior attempts at IC50 evaluation) to achieve approximately 95% inhibition in the most concentrated well. Aliquots of each dilution are transferred to a microtitre plate in triplicate.
# ICE enzyme is diluted to approximately 24 nM in HGE buffer (100 mM Hepes pH 7.5, 0.5 mM EDTA, 20% glycerol, 0.1% Bovine Serum Albumin (BSA), and activated by adding dithiothreitol (DTT) to a final concentration of 5 mM. The activated enzyme is then aliquoted into wells containing inhibitor or vehicle, and the plate is preincubated for 60 minutes at ambient temperature. Substrate (Ac-Tyr-Val-Ala-Asp-pNA) is added to each well to a final concentration of 50 µM, and plates are placed in the microtitre plate-reader thermostated to 25°°C. Beginning 5 minutes after addition of substrate, absorbance (405 nm) of wells is monitored for 1 hour, and activity is calculated as the mean rate of change in absorbance during this interval.
# ICE [3] = molecular target: T1, ICE; assay: ICE inhibition studies (fluorogenic substrate Ac-Tyr-Val-Ala-Asp-AMC, Ki); assay type: biochemical
# Protocol: ICE (0.24 nM final concentration) is added to 400 µL of HGDE buffer (100 mM HEPES, 20% glycerol, 5 mM DTT, 0.5 mM EDTA) containing 15 µM substrate (Ac-Tyr-Val-Ala-Asp-AMC; KM = 15 µM) plus vehicle (DMSO) or inhibitor at concentrations bracketing the Ki. Substrate hydrolysis is monitored for 300 seconds by observing the fluorescence of released AMC using excitation at 380 nm and emission at 460 nm. Mean rates of substrate hydrolysis are evaluated by linear-regression analysis of the fluorescence vs time traces. To evaluate Ki, plots of percent inhibition vs inhibitor concentration are fit by non-linear regression to a reversible, competitive model: [formula] where the competition factor (1 + [S]/KM) = 2.
# IL-1β production = assay: Mouse model: LPS-induced plasma IL-1β production; assay type: in vivo, Female C57BL/6 mice; conditions: for inhibition of IL-1β production: 5 mg/kg LPS i.v. at T0, compound i.v. at 3.75 hours, plasma at T4h, compared to vehicle treated animals; for production of IL-1β (result in words): summary statement
# Protocol: Female C57BL/6 mice are injected intravenously with 5 mg/kg lipopolysaccaride (LPS) (E. coli 0111:B4) at T0; this induces production of the cytokine interleukin-1β. After 3.75 hours from the administration of LPS, the mice are injected intravenously with either vehicle or a test compound. The mice are bled at T4h and plasma analyzed for IL-1β by ELISA. The vehicle is 5% DMSO/20% Trappsol/3% Dextrose/NMDG.
# Ich-2 (Caspase 4) = molecular target: T2, Ich-2 (Caspase 4) (Homo sapiens, UniProt P49662); assay: Ich-2 colorimetric dose-response (IC50) assay; assay type: biochemical; conditions: enzyme 64 nM, 60 µM Ac-Leu-Glu-Val-Asp-pNA
# T2 sequence (P49662 81-270 limits assumed): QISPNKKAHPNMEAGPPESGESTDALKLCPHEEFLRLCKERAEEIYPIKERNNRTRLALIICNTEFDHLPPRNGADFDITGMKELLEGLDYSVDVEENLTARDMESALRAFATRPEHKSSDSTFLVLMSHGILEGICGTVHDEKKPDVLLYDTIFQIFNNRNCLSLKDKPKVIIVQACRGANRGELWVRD
# T2 sequence (P49662 290-377 limits assumed): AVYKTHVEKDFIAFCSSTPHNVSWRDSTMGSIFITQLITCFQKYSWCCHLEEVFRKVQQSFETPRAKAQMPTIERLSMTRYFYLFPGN
# Protocol: Inhibition of Ich-2 (Caspase 4) enzyme is assayed as described above for ICE, except that enzyme is used at 64 nM, and 60 µM of the Ich-2-specific substrate Ac-Leu-Glu-Val-Asp-pNA is used instead of the ICE substrate Ac-Tyr-Val-Ala-Asp-pNA.
structure (smiles),measurement,setting,value
"O=CC(CC(=O)O)NC(=O)Cn1c(-c2ccc(F)cc2)ncc(NC(=O)OCc2ccccc2)c1=O [Compound 1, N-[2-(5-benzyloxycarbonyl-amino-6-oxo-2-(4-fluorophenyl)-1,6-dihydro-1-pyrimidinyl)acetoxyl]-L-aspartic acid aldehyde]",pIC50,[1],5.74
same,reduction in lesion size,"focal cerebral ischemia; MCAOp (permanent), high dose 50 mg/kg × 3 IP at -5, 60, 180 minutes, 24 hours",13%
same,lesion size smaller in drug treated mice,"focal cerebral ischemia; MCAOt (transient, suture withdrawn after 1 hour), 50 mg/kg × 3 IP, 24 hours",60%
same,arterial lesion size in ischemic brain damage (result in words),"focal cerebral ischemia; mice, middle cerebral artery occlusion after reperfusion, summary statement",reduced arterial lesion size
same,% Loss (percent loss of hemisphere weight),excitotoxic brain damage,16.1%
same,extent of exitotoxic brain damage in rat pups (result in words),excitotoxic brain damage,significantly reduces
same,pIC50,ICE [2],6.31
same,Mode of Inhib.,ICE [3],reversible
same,pKi,"ICE [3]; 0.24 nM ICE, 15 µM Ac-Tyr-Val-Ala-Asp-AMC, reversible competitive model, read-out: 1. ICE Ki",7.22
same,inhibition of IL-1β production,IL-1β production,48%
same,production of IL-1β (result in words),IL-1β production,significantly blocks
same,pIC50,Ich-2 (Caspase 4),5.01
"O=C(O)CC(NC(=O)Cn1c(-c2ccc(F)cc2)ncc(NC(=O)OCc2ccccc2)c1=O)C(=O)COc1cc(C(F)(F)F)nn1-c1ccccc1 (centres unmarked) [Compound 2, reference compound]",pIC50,[1],5.66
same,% Loss (percent loss of hemisphere weight),excitotoxic brain damage,20.8%
same,extent of exitotoxic brain damage in rat pups (result in words),excitotoxic brain damage,not seen
same,pIC50,ICE [2],8.40
same,Mode of Inhib.,ICE [3],irreversible
same,inhibition of IL-1β production,IL-1β production,11%
same,production of IL-1β (result in words),IL-1β production,inactive
same,pIC50,Ich-2 (Caspase 4),8.30
